Two molecules from EP0315782A2, “Method for the production of proteins” (priority 1987, dated 1989) can be followed below.

Type in all cases: cell-based, chinesische Hamster
In assay [1] the test system is CHO-Zellen. The experiment in a line: t-PA production in transformed CHO cells, medium with 7.5% FKS, supernatant and cell extract, ELISA. To be noted: for activation at 1000 µM: CHO. An excerpt:
(§1) Der Vektor für die t-PA-Produktion wurde in einem Subklon, CHO-K1-DUX B11, integriert (Urlaub et al., Proceedings of the National Academy of Science, USA, 77: 4216-4220, 1980). Diese Zell-Linie, eine Dihydrofolat Reduktase negative Mutante (DHFR-), ist für eine DHFR-abhängige Selektion der transfizierten Zellklone geeignet. Der Vektor für die humane c-DNA kann ein bekannter Plasmid-Vektor pBR-322 oder deren Abkömmling von Escherichia coli sein. Die Promotorregion für das in Frage kommende Gen und für das DHFR-Gen stammt aus SV 40 und die Terminationsregion für beide Gene von einem Hepatitis B-Oberflächenantigen. In den Beispielen wurden CHO-K1-DUX B11-Zellen, die durch die Plasmide pETPER oder pEPEFR transformiert sind, verwendet (siehe EP-A 0117059).
(§2) Die Zellkulturen werden bei 37°C in einem Hereaus-Brutschrank inkubiert und mit einem Kohlendioxid-Luftgemisch von 7,5% CO₂ in einer relativen Luftfeuchtigkeit von 100% belüftet. Je nach Verfahrensansatz werden unterschiedliche Kulturgefäße benutzt: Spinnergefäße für 100-1000 ml Medium, Roux-Schalen (Nunc) 175 cm² (70-100 ml Medium), 75 cm² (30-50 ml Medium), 25 cm² (7-10 ml Medium) und Mehrfachkulturschalen von Costar mit 2 cm² für 1 ml Kulturen. Für die Stammhaltung werden die Zellen in einer Dichte von 0,2-0,3 x 10⁶ Zellen/ml eingesetzt und alle 2-3 Tage subkloniert.
(§3) Die Protein-Produktion stimulierenden Substanzen können zu den verschiedenen Zeitpunkten jeweils in einer 1:100 Verdünnung zugegeben werden, d.h. sie wurden zuerst in Medium gelöst oder, wenn sie schwerlöslich sind, erst in Äthylalkohol gelöst und danach in Medium zugesetzt und dann das diese Substanz enthaltende Medium dem zellenthaltenden Medium im Verhältnis 1:100 v/v zugegeben.
(§4) In den folgenden Beispielen wurden, um die Stimulierung der t-PA-Synthese hervorzurufen, Zellen einer exponentiell wachsenden Kultur entnommen und in Plastikröhrchen (Falcon) 10 Min. bei 1000 x g in einer Beckmann T 3-6 Zentrifuge abzentrifugiert. Nach Dekantieren des Überstandes wurde das Zellpellet mit frischem Medium resuspendiert.
(§5) Für die Produktion von t-PA in serumhaltigem Medium wurde als frisches Medium F12/DMEM + 7,5% FKS + Gentamycin verwendet. Die resultierende Suspension kann in 2 cm² 24 Wells-Platten bei einer Zelldichte von 0,2-0,3 x 10⁶ Zellen/ml angesetzt werden.
(§6) Aliquots von Zellüberständen und Zellextrakten wurden zu verschiedenen Zeitpunkten abgenommen bzw. hergestellt. Die Messung der Proben erfolgte entweder sofort oder nach Aufbewahrung bei -20°C mit folgenden Methoden:
Mit Hilfe eines ELISA (Enzyme-linked-immuno-sorbent-assay) wurden die t-PA-Proben des Überstandes und des Zellextraktes quantitativ bestimmt. Als Standard diente ein Laborstandard in einer Konzentrationsreihe von 0,038-5 µg/ml. Die Proben wurden 1:10 bis 1:1000 vorverdünnt.
(In general: In an ELISA, binding on a coated surface is turned into a signal by an enzyme label.)

In assay [2] the test system is CHO-Zellen. The experiment in a line: t-PA production in transformed CHO cells, serum-free medium (DCA or determination method not given). As to conditions: serum-free medium.
Description: Diese Zell-Linie, eine Dihydrofolat Reduktase negative Mutante (DHFR-), ist für eine DHFR-abhängige Selektion der transfizierten Zellklone geeignet. […] Die Promotorregion für das in Frage kommende Gen und für das DHFR-Gen stammt aus SV 40 und die Terminationsregion für beide Gene von einem Hepatitis B-Oberflächenantigen.
Im folgenden Beispiel wird ein nachseziertes DMEM/Ham's F 12 Medium (1:1) (Gibco) als serumfreies Medium verwendet. Als Zusatz wird fötales Kälberserum (FKS) in einer Konzentration von 7,5% oder 1-2% verwendet.
as §2, §3, §4
(§7) Für die Produktion von t-PA in serumfreiem Medium wurden die Zellen zuvor 3-4 Tage in einem Medium von 1-2% FKS adaptiert, wieder abzentrifugiert und das Zellpellet in serumfreiem Medium resuspendiert und anschließend in 2 cm² 24 Wells-Platten in einer Zelldichte von 0,4-0,5 x 10⁶ Zellen/ml überführt.
as §6
Die Aktivität des Enzyms wurde anhand dieses vorgegebenen Standards berechnet.

The subject of assay [3] is CHO-Zellen. In words: t-PA production in transformed CHO cells, serum-free medium, ELISA. As to conditions: in 1 µM Aphidicolin-treated cultures, after 96 h.
Description: as §1
Als serumfreies Medium stehen verschiedene bekannte Produkte zur Verfügung (siehe z.B. BMFT-Statusseminar 12, 13. November 1985, Bundesministerium für Forschung und Technologie, 5300 Bonn 2, Seite 111-120). Im folgenden Beispiel wird ein nachseziertes DMEM/Ham's F 12 Medium (1:1) (Gibco) als serumfreies Medium verwendet. Als Zusatz wird fötales Kälberserum (FKS) in einer Konzentration von 7,5% oder 1-2% verwendet.
as §2, §3
In den folgenden Beispielen wurden, um die Stimulierung der t-PA-Synthese hervorzurufen, Zellen einer exponentiell wachsenden Kultur entnommen und in Plastikröhrchen (Falcon) 10 Min. bei 1000 x g in einer Beckmann T 3-6 Zentrifuge abzentrifugiert. Nach Dekantieren des Überstandes wurde das Zellpellet mit frischem Medium resuspendiert. […]
Mit Hilfe eines ELISA (Enzyme-linked-immuno-sorbent-assay) wurden die t-PA-Proben des Überstandes und des Zellextraktes quantitativ bestimmt. […]

The subject of assay [4] is CHO-Zellen. The experiment in a line: t-PA production in transformed CHO cells, medium with 7.5% FKS, supernatant, direct chromogenic assay (DCA). As to conditions: for activation at 1000 µM: CHO, read-out: Steigerung der t-PA-Produktion.
Description: as §1, §2, §3, §4, §5, §6
Von dem synthetischen Peptidsubstrat S-2288 (D-H-Ile-Pro-Arg-p-Nitroanilin) der Firma Kabi Diagnostica wird durch das t-PA p-Nitroanilin als Reaktionsprodukt gebildet. Die Aktivität von t-PA ist zur Bildung von p-Nitroanilin proportional, die bei […], 37°C, gemessen wird.
Die spektrophotometrische Bestimmung der Enzymkinetik wurde mit einem ACP-5010-Analysengerät der Firma Eppendorf automatisch durchgeführt.
Die Aktivität des Enzyms wurde anhand dieses vorgegebenen Standards berechnet. Eine t-PA-Standardreihe von 1-15 µg/ml wurde mit einem Laborstandard hergestellt, der zu 72% aus 1-kettigem Material besteht.
Die Substratlösung (100 mM Tris/106 mM NaCl) wurde in einer Konzentration von 50 mM eingesetzt.

The test system of assay [5] is CHO-Zellen. In words: t-PA production in transformed CHO cells, medium and determination method not stated. To be noted: day 5; medium not clearly stated.
Description: as §1, §2, §3, §4
Aliquots von Zellüberständen und Zellextrakten wurden zu verschiedenen Zeitpunkten abgenommen bzw. hergestellt. Die Messung der Proben erfolgte entweder sofort oder nach Aufbewahrung bei -20°C mit folgenden Methoden: […]

Assay [6] relates to CHO-Zellen. The experiment in a line: Cell growth / cell division of transformed CHO cells. To be noted: serum-free medium. The procedure: as §2, §5, §7

For the molecule `CCCC(=O)O` [Na-Butyrat], the activation at 1000 µM with CHO-Zellen [1] (24 h, read-out: Stimulierung der t-PA-Synthese extrazellulär) amounted to 68.5%; with CHO-Zellen [1] (24 h, read-out: Stimulierung der t-PA-Synthese intrazellulär), 90.9%; in the assay on CHO-Zellen [1] (48 h, read-out: Stimulierung der t-PA-Synthese extrazellulär) it was 119%; in the assay on CHO-Zellen [1] (48 h, read-out: Stimulierung der t-PA-Synthese intrazellulär), 99.7%; with CHO-Zellen [1] (72 h, read-out: Stimulierung der t-PA-Synthese extrazellulär), 223%; in the assay with CHO-Zellen [1] (72 h, read-out: Stimulierung der t-PA-Synthese intrazellulär), 93.9%. In addition, the activation at 1000 µM in the assay on CHO-Zellen [1] (96 h, read-out: Stimulierung der t-PA-Synthese extrazellulär) turned out to be 281%; with CHO-Zellen [1] (96 h, read-out: Stimulierung der t-PA-Synthese intrazellulär), 210%; in the assay on CHO-Zellen [4] (48 h, Table 6, 1 mM at each medium change (Applikation Tag 0, 2, 4, 7), Mediumwechsel Tag 2, 1 ml supernatant vs control (0%)), 33%; with CHO-Zellen [4] (96 h, Table 6, 1 mM at each medium change (Applikation Tag 0, 2, 4, 7), Mediumwechsel Tag 4, 1 ml supernatant vs control (0%)), 107%; with CHO-Zellen [4] (168 h, Table 6, 1 mM at each medium change (Applikation Tag 0, 2, 4, 7), Mediumwechsel Tag 7, 1 ml supernatant vs control (0%)), 96.6%; in the assay on CHO-Zellen [4] (216 h, Table 6, 1 mM at each medium change (Applikation Tag 0, 2, 4, 7), Mediumwechsel Tag 9, 1 ml supernatant vs control (0%)), 62%. Moreover, the “t-PA-Konzentration im Überstand” value in the assay with CHO-Zellen [1] (Elisa, starting value of the rise during the first 4 days) is recorded as 7,5 ± 1,1 µg t-PA/ 1 x 10⁶ Zellen; with CHO-Zellen [1] (Elisa, value reached in the rise during the first 4 days), 28,9 ± 5,3 µg t-PA/ 1 x 10⁶ Zellen. Also, in the assay on CHO-Zellen [1] (after 24 h incubation, vs control (Abb. 8)), the “Zunahme des intrazellulären t-PA-Gehaltes” value is 43,8 ± 9,8%. In addition, the “intrazelluläre t-PA-Gehalt” value with CHO-Zellen [1] (value from which the content falls (until day 5) (Abb. 9C)) is on record as 1,5 ± 0,2 µg t-PA/1 x 10⁶ Zellen. In addition, the “Steigerung der t-PA-Synthese gegenüber der Kontrolle” value with CHO-Zellen [2] (1 day after application) is recorded as 44,1 ± 7,1%. Also, in the assay with CHO-Zellen [2] (3 days after application), the “maximale Steigerung” value is listed as 143,3 ± 12,8%. Besides, the Steigerungseffekt with CHO-Zellen [2] (6 days after addition) is listed as 49,9 ± 7,0%. Further, the “weitere Steigerung der t-PA-Synthese” value with CHO-Zellen [3] is listed as 14%. Moreover, the “maximaler t-PA-Gehalt” value in the assay on CHO-Zellen [4] (DCA, supernatant (Abb. 9B)) is listed as 47,4 ± 7,4 µg t-PA/1 x 10⁶ Zellen. Further, the “prozentuale Steigerung im Überstand” value in the assay on CHO-Zellen [4] (after 24 h, average of DCA and Elisa, vs control) is on record as 19,2%. The “maximale Steigerung der t-PA-Produktion” value in the assay on CHO-Zellen [4] (day 3, medium with 7,5% FKS (Abb. 7)) is reported as 37,2 ± 5,1%.

In the case of `O=C(O)CS` [Thioglykolsäure], the “maximale intrazelluläre t-PA-Konzentration” value with CHO-Zellen [1] (1 mM, after 24 h (Abb. 17C)) is 1,1 ± 0,1 µg/l x 10⁶ Zellen. The activation at 1000 µM in the assay on CHO-Zellen [1] (96 h, 1 mM, Elisa, per 1 x 10⁶ cells, day 4 (Abb. 17B), read-out: Steigerungsrate) is about 35%; in the assay on CHO-Zellen [4] (24 h, Table 9, 1 mM, Zeit 24 h, Applikationstag 0, 7,5% FKS, 1 ml supernatant vs control (0%)) it was 27.6%; in the assay on CHO-Zellen [4] (24 h, Table 9, 1 mM, Zeit 24 h, Applikationstag 1, 7,5% FKS, 1 ml supernatant vs control (0%)), 34.7%; in the assay with CHO-Zellen [4] (24 h, Table 9, 1 mM, Zeit 24 h, Applikationstag 2, 7,5% FKS, 1 ml supernatant vs control (0%)), 34.5%; in the assay with CHO-Zellen [4] (48 h, Table 9, 1 mM, Zeit 48 h, Applikationstag 0, 7,5% FKS, 1 ml supernatant vs control (0%)) it was 16.9%; in the assay with CHO-Zellen [4] (48 h, Table 9, 1 mM, Zeit 48 h, Applikationstag 1, 7,5% FKS, 1 ml supernatant vs control (0%)), 17.1%. Further, the activation at 1000 µM in the assay with CHO-Zellen [4] (48 h, Table 9, 1 mM, Zeit 48 h, Applikationstag 2, 7,5% FKS, 1 ml supernatant vs control (0%)) is 16.3%; in the assay on CHO-Zellen [4] (72 h, Table 9, 1 mM, Zeit 72 h, Applikationstag 0, 7,5% FKS, 1 ml supernatant vs control (0%)), 14.7%; in the assay on CHO-Zellen [4] (72 h, Table 9, 1 mM, Zeit 72 h, Applikationstag 1, 7,5% FKS, 1 ml supernatant vs control (0%)), 10.2%; in the assay on CHO-Zellen [4] (72 h, Table 9, 1 mM, Zeit 72 h, Applikationstag 2, 7,5% FKS, 1 ml supernatant vs control (0%)) it was 9.4%; in the assay with CHO-Zellen [4] (96 h, Table 9, 1 mM, Zeit 96 h, Applikationstag 0, 7,5% FKS, 1 ml supernatant vs control (0%)), 3.4%; with CHO-Zellen [4] (96 h, Table 9, 1 mM, Zeit 96 h, Applikationstag 1, 7,5% FKS, 1 ml supernatant vs control (0%)) it was 2.7%. Further, in the assay with CHO-Zellen [4] (96 h, Table 9, 1 mM, Zeit 96 h, Applikationstag 2, 7,5% FKS, 1 ml supernatant vs control (0%)), the activation at 1000 µM was determined as 0.5%. For the same molecule, the “extrazelluläre t-PA-Konzentration gegenüber der Kontrolle gesteigert” value in the assay on CHO-Zellen [5] is recorded as 10,7%. Further, the “optimaler Dosisbereich” value in the assay on CHO-Zellen [4] (Table 8, 7,5% FKS, bracketed value = concentration of the single sample) is 1 mM. Moreover, the “% Steigerung der t-Pa-Synthese Durchschnitt” value in the assay on CHO-Zellen [4] (Table 8, mean ± SE, n = 6-19, runs of 3 days, added day 0 to 2, 7,5% FKS, 1 ml supernatant vs control (0%)) is 31,2 ± 3,2%. Further, the “% Steigerung der t-Pa-Synthese Maximum” value in the assay on CHO-Zellen [4] (Table 8, single sample, 7,5% FKS, 1 ml supernatant vs control (0%)) is reported as 66,4%. Besides, the “t-PA-Produktion erhöht (Dauer)” value in the assay with CHO-Zellen [4] (duration of raised production after treatment, independent of application day) is listed as 72 h. Moreover, in the assay with CHO-Zellen [4] (time to maximal effect (Abb. 15)), the “Maximalwert des Steigerungseffektes erreicht nach” value is on record as 24 h. Moreover, the “Hemmung der Zellteilung” value in the assay on CHO-Zellen [6] is 10-20%.
